In patent publication US11773399B2, “Methods and compositions for enhancing polypeptide production” (priority 2009, dated 2023):
One block for each compound: values may come before it.

Experiments:
host plants = experiment: Toxicity of infiltrated antioxidant to the host plant (necrosis); details: for toxicity to the plant: 100 μM
Method: Transient infiltration was done according Medrano et al (2009), with some modifications as follows. Briefly, an A. tumefaciens inoculum integrated with the binary vector pBIB-Kan encoding IL-12 was cultured under standard conditions for 2 days at 28° C. The bacterial cultures were centrifuged and resuspended to a final OD600 of 0.2-0.8, in 400 mL of a induction medium (“IM”; 0.5× Murashige and Skoog basal medium salts, 1× MS vitamins, 5% sucrose, 1× benzylaminopurine, 200 μM acetosyringone, pH 5.5). The cultures were incubated in 1M for ≥3 h at 28° C. Vacuum infiltration of 4-5-week-old N. benthamiana was accomplished by inverting a plant into a 400 mL glass beaker containing IM, ensuring that all leaves of the plant are immersed in the media. The beaker was placed in a vacuum desiccator unit (240-mm inner diameter) and using a vacuum pump, maximum pressure (˜25 in. Hg) was applied for 2 min and then quickly released. Additional plants were subject to infiltration using the same construct/antioxidant culture, or replaced with a new beaker of IM containing another construct/antioxidant culture. […] Infiltrated plants were returned to the environmental chamber at conditions established previously during plant growth. In the case of both model transgene constructs, leaves were harvested from plants at 48 h post-infiltration and stored at −80° C. for subsequent analyses.
(§1) Vitamin E and vitamin K were solubilized in chloroform and kept on amber tube on ice. The final concentration range of vitamins E and K tested were 5-100 μM.

N. benthamiana leaves = experiment: Recovery of purified hIL-12, heterodimer-specific hIL-12 ELISA; assay type: in vivo; details: 20 mM exogenously added AsA vs no antioxidant
Method: The amount of hIL-12 expressed in N. benthamiana leaves in the presence or absence of modified antioxidants levels during bioproduction was quantitated using a commercially available heterodimer-specific hIL-12 enzyme-linked immunoabsorbant assay (ELISA) (R&D Systems). To assay hIL-12, leaves were ground in PBS buffer (137 mM NaCl, 2.7 mM KCl, 10.1 mM Na2HPO4, and […] KH2PO4 pH 7.0) at a 1:2 (w/v) ratio and supernatant extracts were analyzed by the ELISA. For hIL-12 detection, the ELISA used monoclonal antibodies specific for hIL-12 p70 for capture (0.2 μg/mL) and biotinylated anti-human IL-12 antibody for detection (4 μg/mL). Streptavidin-HRP (1:200 v/v) was used for chemiluminescence and 3,3′,5,5′-tetramethylbenzidine (TMB; KPL) as a substrate for detection. Densitometry using the BIORAD® VERSDOC4000™ and QUANT-1® software package was employed and was established relative protein expression in order to evaluate the impact of antioxidants on its expression in plants.

N. benthamiana plants [1] = experiment: Transient chIL-12 expression after vacuum co-infiltration, anti-his Western blot and densitometry; assay type: in vivo
Method: Transient infiltration was done according Medrano et al (2009), with some modifications as follows. Briefly, an A. tumefaciens inoculum integrated with the binary vector pBIB-Kan encoding IL-12 was cultured under standard conditions for 2 days at 28° C. The bacterial cultures were centrifuged and resuspended to a final OD600 of 0.2-0.8, in 400 mL of a induction medium (“IM”; 0.5× Murashige and Skoog basal medium salts, 1× MS vitamins, 5% sucrose, 1× benzylaminopurine, 200 μM acetosyringone, pH 5.5). The cultures were incubated in 1M for ≥3 h at 28° C. Vacuum infiltration of 4-5-week-old N. benthamiana was accomplished by inverting a plant into a 400 mL glass beaker containing IM, ensuring that all leaves of the plant are immersed in the media. The beaker was placed in a vacuum desiccator unit (240-mm inner diameter) and using a vacuum pump, maximum pressure (˜25 in. Hg) was applied for 2 min and then quickly released. Additional plants were subject to infiltration using the same construct/antioxidant culture, or replaced with a new beaker of IM containing another construct/antioxidant culture. A single IM culture was used for infiltrating typically 3 but up to 10 independent plants with no adverse effect on the amount of transgene product expressed and presence of exogenously introduced antioxidant in planta respectively. Infiltrated plants were returned to the environmental chamber at conditions established previously during plant growth. In the case of both model transgene constructs, leaves were harvested from plants at 48 h post-infiltration and stored at −80° C. for subsequent analyses.
Vitamin E and vitamin K were solubilized in chloroform and kept on amber tube on ice. […]
(§2) Samples were resolved by SDS-PAGE (run under denaturing or reducing conditions) and Western immunoblotting analysis performed. […] Densitometry using the BIORAD® VERSDOC4000™ and QUANT-1® software package was employed and relative protein expression was determined in order to evaluate the effect of antioxidants on plant-made protein expression.

Stable N. tabacum lines = experiment: hIL-12 expression in stable transgenic lines after vacuum infiltration, Western blot; assay type: in vivo; details: AsA in IM media, leaves 24 and 48 h
Method: (§3) Samples were resolved by SDS-PAGE (run under denaturing or reducing conditions) and Western immunoblotting analysis performed. For hIL-12 detection, primary antibody anti-human IL-12 (1:1000 v/v; R&D Systems) and secondary antibody anti-goat IgG-alkaline phosphatase conjugated (1:10,000 v/v; BIORAD®) was used. For chIL-12 detection, anti-6×His (C-term)-alkaline phosphatase conjugated (1:2000 v/v; Invitrogen) was used. Detection on immunoblots was carried out using the CDP-Star chemiluminescent substrate for alkaline phosphatase (Roche, Indianapolis, Ind.) and NitroBlock. Enhancer II (Tropix Inc., Bedford, Mass.) in accordance with manufacturers' procedures. Densitometry using the BIORAD® VERSDOC4000™ and QUANT-1® software package was employed and relative protein expression was determined in order to evaluate the effect of antioxidants on plant-made protein expression.
This finding further supports the concept that increasing the antioxidant capacity of the host plant enhances the overall biosynthesis of the plant in serving as a factory for recombinant protein production.

[2] = system: transient system host plants; experiment: Foliar ascorbate content of infiltrated host plants, ascorbate oxidase assay; assay type: in vivo, N. benthamiana; details: increasing infiltrated AsA
Method: Leaf tissue ground in the presence of liquid nitrogen with mortar/pestle was extracted. The foliar vitamin C content was determined by the ascorbate oxidase assay as previously described (Lorence et al., 2004). Briefly, tissue samples were harvested and immediately frozen in liquid nitrogen and stored at -80° C. till analysis. Samples were ground in 6% (w/v) meta-phosphoric acid, and centrifuged at 15,000×g for 10 min. Reduced vitamin C (a.k.a. ascorbate) was determined by measuring the decline in […] (extinction coefficient of 14.3 cm^-1 mM^-1) after addition of 1 unit of ascorbate oxidase (Sigma) to 1 mL of the reaction mix including tissue extract and 100 mM potassium phosphate (pH 6.9). […] Foliar ascorbate content was determined by a microplate reader-based method described herein. […] Reduced ascorbate was determined in a 300 μL reaction in triplicates by adding 275 μL of 0.1M of potassium phosphate buffer pH 6.9 into a 96-well plate (UV Flat Bottom Microplate, Thermo Scientific) containing 15 μL of sample supernatant. The mix was measured at […] and recorded. The decline in […] was measured after addition of 10 μL (1 U) of ascorbate oxidase (final concentration 0.0033 units of ascorbate oxidase, Sigma). […] The mix was measured at […] and recorded. […] […] was measure using a plate reader (model Power Wave XS, software KC Junior, Biotek).

[3] = system: plant transient bioproduction system; experiment: Transient expression of a 94 kDa human glycoprotein, Western blot; assay type: in vivo; details: 20 mM co-infiltrated AsA, 72 hrs post-infiltration
Method: Transient infiltration was done according Medrano et al (2009), with some modifications as follows. Briefly, an A. tumefaciens inoculum integrated with the binary vector pBIB-Kan encoding IL-12 was cultured under standard conditions for 2 days at 28° C. The bacterial cultures were centrifuged and resuspended to a final OD600 of 0.2-0.8, in 400 mL of a induction medium (“IM”; 0.5× Murashige and Skoog basal medium salts, 1× MS vitamins, 5% sucrose, 1× benzylaminopurine, 200 μM acetosyringone, pH 5.5). The cultures were incubated in 1M for ≥3 h at 28° C. Vacuum infiltration of 4-5-week-old N. benthamiana was accomplished by inverting a plant into a 400 mL glass beaker containing IM, ensuring that all leaves of the plant are immersed in the media. The beaker was placed in a vacuum desiccator unit (240-mm inner diameter) and using a vacuum pump, maximum pressure (˜25 in. Hg) was applied for 2 min and then quickly released. […]
as §2

H2O2 in leaves = experiment: In situ H2O2 detection in leaves, DAB staining; assay type: in vivo, N. benthamiana
Excerpt: Staining for H2O2 in leaves which correlates with the presence of reactive oxygen species (ROS) is detected by an endogenous peroxidase-dependent staining procedure, using 3,3-diaminobenzidine (DAB). This assay provides a comparative in situ measure of the ROS levels in planta (Thordal-Christensen et al., 1997).

N. benthamiana plants [4] = experiment: Transient hIL-12 expression after vacuum co-infiltration, Western blot and densitometry; assay type: in vivo; details: for increase in hIL-12 expression (semi-quantitative densitometry): 20 mM AsA in induction medium, vs construct alone
Method: Transient infiltration was done according Medrano et al (2009), with some modifications as follows. Briefly, an A. tumefaciens inoculum integrated with the binary vector pBIB-Kan encoding IL-12 was cultured under standard conditions for 2 days at 28° C. The bacterial cultures were centrifuged and resuspended to a final OD600 of 0.2-0.8, in 400 mL of a induction medium (“IM”; 0.5× Murashige and Skoog basal medium salts, 1× MS vitamins, 5% sucrose, 1× benzylaminopurine, 200 μM acetosyringone, pH 5.5). The cultures were incubated in 1M for ≥3 h at 28° C. Vacuum infiltration of 4-5-week-old N. benthamiana was accomplished by inverting a plant into a 400 mL glass beaker containing IM, ensuring that all leaves of the plant are immersed in the media. The beaker was placed in a vacuum desiccator unit (240-mm inner diameter) and using a vacuum pump, maximum pressure (˜25 in. Hg) was applied for 2 min and then quickly released. Additional plants were subject to infiltration using the same construct/antioxidant culture, or replaced with a new beaker of IM containing another construct/antioxidant culture. A single IM culture was used for infiltrating typically 3 but up to 10 independent plants with no adverse effect on the amount of transgene product expressed and presence of exogenously introduced antioxidant in planta respectively. Infiltrated plants were returned to the environmental chamber at conditions established previously during plant growth. […]
as §1, §3

Compound: vitamin K
- toxicity to the plant (host plants): detrimental

- in planta foliar AsA levels [2]: dose-dependent increase
Compound: O=C1O[C@H]([C@@H](O)CO)C(O)=C1O [AsA, ascorbic acid]
- effect on leaves/cells of host plants (host plants; 80 mM): began to show signs of necrosis
- effect on leaves/cells of host plants (host plants; 80 mM, listed as vitamin C): detrimental
- effect on leaves/cells of host plants (host plants; 100 mM): significant necrotic lesions
- effect on leaves/cells of host plants (host plants; 100 mM, listed as vitamin C): detrimental
- more purified hIL12 product recovered (ELISA) (N. benthamiana leaves): 20-25%
- increase in chIL-12 protein expression (N. benthamiana plants [1]; 20 mM AsA, 48 h post-infiltration, on average): ~3 fold
- hIL-12 protein levels in stable transgenic plants (Stable N. tabacum lines): increasing the overall expression of hIL-12 protein levels
- stable accumulation of 94 kDa human glycoprotein [3]: enhanced
- H2O2 staining (DAB) (H2O2 in leaves; 80 mM AsA): some staining
- H2O2 staining (DAB) (H2O2 in leaves; 100 mM AsA): clearly detectable
- H2O2 staining (DAB) (H2O2 in leaves; 20 to 60 mM AsA): minimal
- hIL-12 protein expression levels, dose response (N. benthamiana plants [4]; 0, 20, 40, 60 mM AsA): dose dependent increase
- increase in hIL-12 expression (semi-quantitative densitometry) (N. benthamiana plants [4]): 25-30%
- increase in hIL-12 expression (semi-quantitative densitometry) (N. benthamiana plants [4]; listed as vitamin C): ~25%
- monomeric, single-chain hIL12 on Western blot (N. benthamiana plants [4]; 20 mM co-infiltrated AsA vs construct alone): significant increase
- oligomer formation of hIL-12 (N. benthamiana plants [4]; 48 and 72 h post-infiltration, vs 0 mM AsA): abrogates oligomer formation of hIL-12
- time hIL-12 is sustained in planta (N. benthamiana plants [4]; co-infiltrated AsA vs 0 mM AsA): up to 72 h
- effective dose range for recombinant protein production (N. benthamiana plants [4]; plant transient infiltration system): 20 to 60 mM

Compound: vitamin E
- toxicity to the plant (host plants): appeared to be toxic
- chIL12 protein production at higher concentrations (N. benthamiana plants [1]; 50-100 μM): reduced improvement in protein production
- concentration with greatest impact in transient chIL12 protein expression (N. benthamiana plants [1]; dose-response 5-100 mM): 20 µM
- transient hIL-12 expression (N. benthamiana plants [4]; vitamin E alone): no effect on expression
